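Each compound was tested at five concentrations against cells in 96-well plates for 48 hours. The concentration for full growth arrest is given as TGI.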
Experiments:
Assay in all cases: DTP human tumour cell line panel, 48 h
BT-549 breast = system: BT-549 breast
CAKI-1 renal = system: CAKI-1 renal
HCT-116 colon = system: HCT-116 colon
HOP-62 NSCLC = system: HOP-62 NSCLC
HS 578T breast = system: HS 578T breast
HT29 colon = system: HT29 colon
IGROV1 ovarian = system: IGROV1 ovarian
MCF7 breast = system: MCF7 breast
NCI-H23 lung = system: NCI-H23 lung
NCI-H460 lung = system: NCI-H460 lung
OVCAR-3 ovarian = system: OVCAR-3 ovarian
OVCAR-8 ovarian = system: OVCAR-8 ovarian
PC-3 prostate = system: PC-3 prostate
RPMI-8226 leukemia = system: RPMI-8226 leukemia
SF-295 CNS = system: SF-295 CNS
SK-MEL-5 melanoma = system: SK-MEL-5 melanoma
SR leukemia = system: SR leukemia
A498 renal = system: A498 renal
EKVX NSCLC = system: EKVX NSCLC
SF-539 CNS = system: SF-539 CNS

Compound	TGI (BT-549 breast) [µM]	TGI (CAKI-1 renal) [µM]	TGI (HCT-116 colon) [µM]	TGI (HOP-62 NSCLC) [µM]	TGI (HS 578T breast) [µM]	TGI (HT29 colon) [µM]	TGI (IGROV1 ovarian) [µM]	TGI (MCF7 breast) [µM]	TGI (NCI-H23 lung) [µM]	TGI (NCI-H460 lung) [µM]	TGI (OVCAR-3 ovarian) [µM]	TGI (OVCAR-8 ovarian) [µM]	TGI (PC-3 prostate) [µM]	TGI (RPMI-8226 leukemia) [µM]	TGI (SF-295 CNS) [µM]	TGI (SK-MEL-5 melanoma) [µM]	TGI (SR leukemia) [µM]	TGI (A498 renal) [µM]	TGI (EKVX NSCLC) [µM]	TGI (SF-539 CNS) [µM]
C[C@@H]1CC[C@H]2[C@H]1[C@H]1[C@@H](CC[C@]2(C)N=C=S)C1(C)C	39.1	92.4	31.7	> 100	> 100	52.7	> 100	34	94.3	47.3	42.9	> 100	> 100	43.4	46.9	31.8	47	–	–	–
COc1ccc2oc(=N)c(C(=O)Nc3ccccc3)cc2c1	43.8	> 100	> 100	41.7	39.6	> 100	97.4	33.2	51.8	> 100	> 100	46	> 100	83	43.9	> 100	> 100	39.8	> 100	51.6
COc1ccc(N2C(=O)C3c4[nH]c5cc(C)ccc5c4C4CCC(C(C)(C)C)CC4C3C2=O)cc1 (stereo not drawn)	–	> 10	> 10	> 10	> 10	> 10	> 10	> 10	> 10	> 10	> 10	> 10	> 10	> 10	> 10	> 10	> 10	> 10	> 10	> 10
COC1OC2COC(c3ccccc3)OC2C(O)C1OC(=S)c1ccccc1 (stereo not drawn)	> 100	80.4	–	91.4	> 100	47.9	> 100	> 100	> 100	> 100	> 100	> 100	57.2	36.5	> 100	61.3	85.5	> 100	51.7	87.1
O=C1N(Cc2ccccc2)C2CSCC2N1Cc1ccccc1 (stereo not drawn)	53.5	> 100	> 100	58.3	66.5	38.1	> 100	> 100	85	55.8	43.9	> 100	> 100	59	> 100	30.3	93.6	–	79.3	76
C/C1=C\[C@H](C)C[C@H](C)OC(=O)[C@H](C)NC(=O)[C@@H](Cc2ccc(O)c(Br)c2)N(C)C(=O)[C@H](C)NC(=O)[C@@H](C)C1	4.12	0.0274	> 12.2	0.112	3.76	> 3.13	0.105	> 25	> 25	> 19.5	3.84	> 7.69	24.6	0.604	4.9	0.315	–	0.051	> 4.7	0.117
OC(C#CCN1CCCC1)(c1ccccc1)c1ccccc1Cl (stereo not drawn)	> 100	93.6	85.2	38.7	73.6	30.1	73.6	32.9	> 100	41.5	> 100	> 100	80.2	> 100	45.8	31.5	> 100	66.8	> 100	52.4
CC1(C)CCc2c(ccc(C(=O)/C=C/c3ccc(O)cc3)c2O)O1	22.3	15.8	20	19.4	27.2	23.9	19.9	29.4	22.7	22.2	18.3	22	17.8	20.8	26.1	22	30.5	29.8	10.1	22
